In test [1] the target is Recombinant ROCK1 (amino acids 1-535) (Homo sapiens (Human), UniProt Q13464). Kind of test: Z′-Lyte kinase assay, ROCK1. The class given is biochemical. The following applies: for inhibition at 0.5 µM: 0.5 μM compound. In a few lines:
(§1)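 IC50s derive from nonlinear curve fits over a 9-point, 2-fold dilution series, with single-point inhibition at 1 μM expressed relative to DMSO. Activity of truncated human ROCK1 (residues 1-535) and ROCK2 (residues 1-552) measured with the Z′-Lyte kinase format.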

Test [2] has as its target Recombinant ROCK2 (amino acids 1-552) (Homo sapiens (Human), UniProt O75116). Kind of test: Z′-Lyte kinase assay, ROCK2. The class given is biochemical. The note with it: for inhibition at 0.5 µM: 0.5 μM compound. The essentials:
as §1

Test [3] relates to ppMlc (T18/S19) levels in A7R5 cells. Kind of test: A7R5 in-cell ELISA (pMLC). The format is cell-based, Rat. The note with it: Rattus norvegicus, A7R5, A7R5 cells. The essentials:
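Cellular IC50 came from a nonlinear regression fit of ppMlc (T18/S19) signal, read by colorimetric in-cell ELISA on fixed cells. Rat A7R5 aortic smooth muscle cells had been exposed for 90 min to compounds in 9-point 2-fold serial dilution, 24 h after seeding.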
Background: In an ELISA, binding on a coated surface is turned into a signal by an enzyme label.

The test system of test [4] is human ACTA2 gene promoter luciferase reporter in NIH3T3 cells. Kind of test: NIH3T3 Acta2-promoter driven-luciferase assay. The format is cell-based. The note with it: NIH3T3, 24 h, read-out: NIH3T3 Acta2-luc, IC50. In a few lines:
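NIH3T3 cells stably carrying a human ACTA2 promoter (−1000-1 bp)-luciferase reporter, grown to confluence, treated 24 hr with compound plus TGFβ1 at 9-point serial dilution. Luciferase read after lysis; IC50 by nonlinear regression.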

The test system of test [5] is CCD18lu human lung fibroblasts. The test is described as follows: F-actin stress fiber formation (phalloidin staining). The class given is cell-based.
Test [6] relates to MKL1 in CCD18Lu human lung fibroblasts. Kind of test: MKL1 nuclear translocation, immunofluorescent staining. The note with it: 3 μM, 3 hours. The format is cell-based. As to the method: FIG. 3. Immunofluorescent staining of MKL1 in human lung fibroblasts. CCD18Lu human lung fibroblasts were treated with compounds for 3 hours and fixed and stained for MKL1, F-actin and DAPI. […] The Example 228 compound abolished nuclear accumulation of MKL1 in cultured human lung fibroblasts. CCD18Lu human lung fibroblasts were treated with the ROCK inhibitor (3 μM) for 3 hours and fixed and stained for MKL1, F-actin and DAPI.

The test system of another test is Detroit 562 cells. Kind of test: Integrin αvβ6 mediated latent TGFβ activation (phospho-Smad2/3). The class given is cell-based. The following applies: with thrombin, 2 hours. Here is the method: FIG. 5. ROCK inhibitor (Example 228) blocked integrin αvβ6 mediated latent TGFβ activation. Integrin αvβ6 positive cell line Detroit 562 cells were plated and treated with compounds in combination with parl ligand thrombin for 2 hours, lysed and activation of TGFβ signaling was detected by phosphorylation of transcription factors Smad2/3. Integrin αvβ6 mediated latent TGFβ activation requires ROCK activity (Jenkins et al., 2006). Activation of the latent TGF3 complex is a key step in regulating the biological availability of this molecule and its subsequent activities. Under tissue injury, extracellular protease cleavage of cell membrane receptor protease-activated receptor 1 (parl) leads to activation of Rho/ROCK, which in turn activates latent ECM associated TGFβ through cell membrane integrin αvβ6. […] Integrin αvβ6 positive cell line Detroit 562 cells were plated and treated with compounds in combination with parl ligand thrombin for 2 hours, lysed and activation of TGFβ signaling was detected by phosphorylation of transcription factors Smad2/3.

The next test relates to ppMLC in SVEC4-10 cells. Kind of test: Thrombin induced MLC phosphorylation western blot. The format is cell-based, Mouse. The following applies: SVEC4-10 endothelial cells, increasing doses of thrombin, 10 min. As to the method: FIG. 7b. […] Mouse endothelial cell line SVEC4-10 cells were cultured and treated with increasing doses of thrombin in combination with ROCKi for 10 min. ppMLC signal was detected by western blot. […] Mouse endothelial cell line SVEC4-10 was cultured and treated with increasing doses of thrombin in combination with ROCK inhibitor for 10 min. ppMLC signal was detected by western blot. […] Collectively, the above data strongly supports the ROCK inhibitors of the invention as an effective intervention in fibrotic diseases.
A general note: Immunoblotting shows a protein as a band on a membrane.

[7] abbreviates: 9 points 2-fold serial dilution.
The mark [8] stands for this setting: read-out: ROCK1 % inh. @ [conc].
The mark [9] stands for this setting: read-out: ROCK2 % inh. @ [conc].

Entries after “also recorded” stand apart in the source; their conditions may differ. Where two headings read alike, the source gives them in different places.

Experimental findings from patent US11613531B2, “Inhibitors of RHO associated coiled-coil containing protein kinase” (Kadmon Corporation, LLC, priority 2017, dated 2023) are described below.

Chain of Recombinant ROCK2 (amino acids 1-552) (O75116 1-552): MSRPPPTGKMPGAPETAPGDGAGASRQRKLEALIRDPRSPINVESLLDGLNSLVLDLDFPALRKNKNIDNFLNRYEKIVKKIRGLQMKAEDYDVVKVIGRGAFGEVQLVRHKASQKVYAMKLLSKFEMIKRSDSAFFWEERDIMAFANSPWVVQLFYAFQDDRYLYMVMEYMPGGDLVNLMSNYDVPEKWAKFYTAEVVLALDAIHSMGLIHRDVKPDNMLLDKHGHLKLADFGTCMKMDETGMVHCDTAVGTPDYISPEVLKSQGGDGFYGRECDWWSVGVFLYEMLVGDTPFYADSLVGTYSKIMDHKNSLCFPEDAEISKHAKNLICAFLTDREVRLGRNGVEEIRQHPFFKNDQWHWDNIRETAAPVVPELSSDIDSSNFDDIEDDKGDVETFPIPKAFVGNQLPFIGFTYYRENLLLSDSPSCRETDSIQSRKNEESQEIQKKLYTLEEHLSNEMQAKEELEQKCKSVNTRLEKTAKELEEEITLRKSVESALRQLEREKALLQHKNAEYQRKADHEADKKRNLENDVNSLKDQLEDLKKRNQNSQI
Chain of Recombinant ROCK1 (amino acids 1-535) (Q13464 1-535): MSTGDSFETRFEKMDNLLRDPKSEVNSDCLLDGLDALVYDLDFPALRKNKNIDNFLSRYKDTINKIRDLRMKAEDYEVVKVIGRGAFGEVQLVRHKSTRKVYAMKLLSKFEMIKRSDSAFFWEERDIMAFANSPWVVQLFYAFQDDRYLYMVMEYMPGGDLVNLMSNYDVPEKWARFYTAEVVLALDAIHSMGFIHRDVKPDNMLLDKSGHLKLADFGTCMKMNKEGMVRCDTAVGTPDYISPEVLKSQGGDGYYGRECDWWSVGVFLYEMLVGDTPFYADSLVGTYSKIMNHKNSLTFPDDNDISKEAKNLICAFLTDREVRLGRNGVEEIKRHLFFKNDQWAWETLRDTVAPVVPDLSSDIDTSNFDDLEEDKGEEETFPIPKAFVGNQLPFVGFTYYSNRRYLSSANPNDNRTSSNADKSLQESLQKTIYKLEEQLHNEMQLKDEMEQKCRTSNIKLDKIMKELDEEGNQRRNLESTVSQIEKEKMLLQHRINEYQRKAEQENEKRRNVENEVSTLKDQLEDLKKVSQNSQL

`c1cc(Nc2ccc3[nH]ncc3c2)nc(N2C3CCC2CNC3)n1` [Example 228, N-(2-(3,8-diazabicyclo[3.2.1]octan-8-yl)pyrimidin-4-yl)-1H-indazol-5-amine]: the inhibition at 3 µM in test [1] (3 μM compound, read-out: ROCK1 % inh. @ [conc]) was determined as 98.5%; in test [2] (3 μM compound, read-out: ROCK2 % inh. @ [conc]) it was 101%. The IC50 (commonly the concentration that inhibits the measured activity by half) in test [1] (setting [7]) was 4 nM; in test [2] (setting [7]) it was 3 nM; in test [3] (ppMlc (T18/S19)), 69 nM; in test [4] (NIH3T3 cells, plus TGFβ1 for 24 hr) it was 151 nM. In addition, the inhibition at 10 µM in test [3] (10 μM compound, read-out: pMLC % inh A7R5 @ [conc]) turned out to be 83%. Further, in test [5], the “F-actin stress fiber formation” value is “phenotypically copied gene silencing; also recorded: inhibited”. Further, in test [6], the “nuclear accumulation of MKL1” value is “abolished”. Further, the stress fiber formation result in test [6] (F-actin staining) is on record as “efficiently cleared”. The “integrin αvβ6 mediated latent TGFβ activation (phosphorylation of Smad2/3)” value with Detroit 562 cells was “blocked”. Also, the “thrombin induced phosphorylation of MLC” value in the test on ppMLC in SVEC4-10 cells is given as “potently inhibited”.
Consider `COc1nc(N2C3CCC2CNC3)nc(Nc2ccc3[nH]ncc3c2)c1Cl` [Example 321, N-(2-(3,8-diazabicyclo[3.2.1]octan-8-yl)-5-chloro-6-methoxypyrimidin-4-yl)-1H-indazol-5-amine], for which the inhibition at 0.5 µM in test [1] (setting [8]) was determined as 98%; in test [2] (setting [9]), 100%. Moreover, the IC50 in test [2] came out at 8 nM; in test [3] it was 74 nM; in test [4] (with TGFβ1, 24 hr), 114 nM.
Consider `CN(C)c1cc(Nc2ccc3[nH]ncc3c2)nc(N2C3CCC2CNC3)n1` [Example 336, 2-(3,8-diazabicyclo[3.2.1]octan-8-yl)-N^4-(1H-indazol-5-yl)-N^6,N^6-dimethylpyrimidine-4,6-diamine], for which the results for the inhibition at 0.5 µM in test [1] (setting [8]) and in test [2] (setting [9]) were 99% and 103%, respectively. In addition, the half-inhibitory concentration (IC50) stood at 3.6 nM in test [2]; 25 nM in test [3]; 116 nM in test [4] (with TGFβ1, 24 hr).
